Experimental findings from patent publication US7388024B2, “Indeno[2,1A]indenes and isoindolo[2,1-A]indoles” (Suven Life Sciences Limited, priority 2004, dated 2008) are described below.

A word on the pIC50: it is the negative decadic logarithm of the IC50, by convention in mol/L. Usually pKi stands for the Ki on a negative log10 scale, so that one unit is a factor of ten.

pIC50, pKi: −log10 of the molar value.

The assay addresses T1, Human 5HT6 Receptor (Homo sapiens, UniProt P50406).
T1 construct: expressed in transfected cells; host or cells: HEK293 cells
The assay can be described thus: Binding Assay for Human 5HT6 Receptor. The note with it: [3H]LSD 1.5 nM; human recombinant receptor expressed in HEK293 cells. As to the method:
Binding Assay for Human 5HT6 Receptor
Receptor source: Human recombinant expressed in HEK293 cells
Radioligand: [^3H]LSD (60-80 Ci/mmol)
Final ligand concentration—[1.5 nM]
Non-specific determinant: Methiothepin mesylate—[0.1 μM]
Reference compound: Methiothepin mesylate
Positive control: Methiothepin mesylate
Reactions are carried out in 50 mM TRIS-HCl (pH 7.4) containing 10 mM MgCl2, 0.5 mM EDTA for 60 minutes at 37° C. The reaction is terminated by rapid vacuum filtration onto glass fiber filters. Radioactivity trapped onto the filters is determined and compared to control values in order to ascertain any interactions of test compound(s) with the cloned serotonin—5HT6 binding site.
• Monsma F. J. Jr., et al., Molecular Cloning and Expression of Novel Serotonin Receptor with High Affinity for Tricyclic Psychotropic Drugs. Mol. Pharmacol. (43): 320-327 (1993).

T1 sequence (P50406 whole entry): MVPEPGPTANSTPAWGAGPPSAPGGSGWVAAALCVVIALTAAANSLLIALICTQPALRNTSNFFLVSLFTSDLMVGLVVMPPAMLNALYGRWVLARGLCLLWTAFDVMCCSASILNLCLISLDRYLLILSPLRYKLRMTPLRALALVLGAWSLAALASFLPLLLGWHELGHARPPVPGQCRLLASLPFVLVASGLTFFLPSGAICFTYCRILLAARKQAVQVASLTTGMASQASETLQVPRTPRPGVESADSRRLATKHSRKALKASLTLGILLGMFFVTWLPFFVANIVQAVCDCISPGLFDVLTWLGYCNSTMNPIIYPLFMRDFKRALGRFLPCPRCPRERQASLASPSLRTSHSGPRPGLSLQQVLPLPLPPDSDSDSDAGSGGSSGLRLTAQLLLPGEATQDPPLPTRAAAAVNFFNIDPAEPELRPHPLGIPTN

Turning to `COc1ccc2c(c1)c(C1CCN(C)C1)c1n2S(=O)(=O)c2ccccc2-1` (stereo not shown) [drawing 19], the pIC50 was 6.69 and the pKi was 7.06.

Turning to `COc1ccc2c(c1)c(C1CCN(C)C1)c1n2S(=O)(=O)c2ccccc2-1` (stereo not shown) [drawing 20], the pIC50 was 6.42 and the pKi was 6.76.
